Experimental data published in patent US10696642B2, “TEAD transcription factor autopalmitoylation inhibitors” (The General Hospital Corporation, priority 2015, dated 2020).

Assays:
TEAD1-YAP interaction = TEAD1-YAP interaction (Homo sapiens, UniProt P28347); assay: Gal4-TEAD1/YAP reporter assay; type: cell-based; settings: read-out: IC50, inhibition of TEAD1-YAP interaction
Procedure: FIG. 13 is a plot of inhibition of TEAD1-YAP interaction in a Gal4-TEAD1/YAP reported assay by compound 4. […] (Data are represented as mean+/−SEM, n=3.) FIG. 14 is graph showing compound 4 inhibits YAP-TEAD target gene expression in cancer cell line (HeLa).
To test whether compound 4 can inhibit TEAD's functions, inhibition of the TEAD YAP interaction using the Gal4-TEAD1 reporter system was evaluated.
Gal-UAS-Luc, YAP, Gal4-TEAD1, Gal4-DBD or Myc-TEAD1 and Renilla luciferase control constructs were transfected into 293T cells and 48 h post-transfection, cells were processed using the Dual-Glo luciferase assay system (Promega) following manufacturer's instructions. Luminescence of Firefly and Renilla luciferase activities were quantified using Perkin Elmer EnVision plate reader.

TEAD2 = biological target: T1, TEAD2 (Homo sapiens, UniProt Q15562); assay: In vitro autopalmitoylation of purified TEAD2 with 1 μM alkyne palmitoyl-CoA; type: biochemical
T1 construct: The cDNA encoding human TEAD2 (residues 217-447, TEAD2^217-447) was cloned into a pET29 vector; made in house; host or cells: E. coli BL21(DE3)-T1R
T1 sequence (Q15562 217-447): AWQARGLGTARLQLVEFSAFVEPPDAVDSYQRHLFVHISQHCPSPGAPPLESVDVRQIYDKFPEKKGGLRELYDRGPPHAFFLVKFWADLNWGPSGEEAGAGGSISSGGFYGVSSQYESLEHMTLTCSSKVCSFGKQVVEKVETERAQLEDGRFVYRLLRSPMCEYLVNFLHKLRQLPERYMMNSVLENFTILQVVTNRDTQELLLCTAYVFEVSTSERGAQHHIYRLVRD
Procedure: Recombinant TEAD2 YBD was incubated with 1 μM of alkyne palmitoyl-CoA for 1 h in the presence of control (DMSO) or increasing 0.5-20 μM of compound 4. Palmitoylation of TEAD2 was detected by streptavidin blot.
Assays were performed to measure inhibition of TEAD2 and TEAD4 palmitoylation in vitro using purified TEAD2 and TEAD4 proteins and 1 μM of alkyne-palmitoyl-CoA. Compound (4) (“CP-1”) was tested at concentrations in the range from 0 to 10 μM and the amount of palmitoylation was quantified.

TEAD1 = biological target: T2, TEAD1 (Homo sapiens, UniProt P28347); assay: TEAD1 palmitoylation in transfected cells; type: cell-based; settings: 1 μM alkyne-palmitic acid probe, 0 to 10 μM compound (FIG. 24)
T2 construct: Myc; expressed in transfected cells
T2 sequence (P28347 whole entry): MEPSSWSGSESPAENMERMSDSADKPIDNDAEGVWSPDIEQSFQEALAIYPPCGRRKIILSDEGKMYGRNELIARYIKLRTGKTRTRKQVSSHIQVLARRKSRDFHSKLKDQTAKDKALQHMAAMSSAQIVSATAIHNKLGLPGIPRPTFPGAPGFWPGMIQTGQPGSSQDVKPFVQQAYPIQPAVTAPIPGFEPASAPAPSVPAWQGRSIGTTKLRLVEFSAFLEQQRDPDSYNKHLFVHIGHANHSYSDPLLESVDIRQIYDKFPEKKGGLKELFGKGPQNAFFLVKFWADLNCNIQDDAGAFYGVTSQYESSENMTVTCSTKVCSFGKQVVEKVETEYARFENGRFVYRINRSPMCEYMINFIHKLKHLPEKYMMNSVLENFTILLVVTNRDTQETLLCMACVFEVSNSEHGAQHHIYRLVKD
Procedure: Assays were performed to measure inhibition of TEAD1 and TEAD4 palmitoylation in cells that were transfected with TEAD1 and TEAD4 proteins and labelled with 1 μM of alkyne-palmitic acid probe. The ability of compound (4) (“CP-1”) to inhibit palmitoylation was tested at concentrations in the range from 0 to 10 μM and the amount of palmitoylation was quantified.

TEAD4-YAP interaction = biological target: T3, TEAD4-YAP interaction (Homo sapiens, UniProt Q15561); assay: Co-immunoprecipitation of TEAD4 and YAP; type: cell-based; settings: 0 to 10 μM (FIG. 25)
T3 construct: Myc; expressed in transfected cells; host or cells: HEK293A
T3 sequence (Q15561 whole entry): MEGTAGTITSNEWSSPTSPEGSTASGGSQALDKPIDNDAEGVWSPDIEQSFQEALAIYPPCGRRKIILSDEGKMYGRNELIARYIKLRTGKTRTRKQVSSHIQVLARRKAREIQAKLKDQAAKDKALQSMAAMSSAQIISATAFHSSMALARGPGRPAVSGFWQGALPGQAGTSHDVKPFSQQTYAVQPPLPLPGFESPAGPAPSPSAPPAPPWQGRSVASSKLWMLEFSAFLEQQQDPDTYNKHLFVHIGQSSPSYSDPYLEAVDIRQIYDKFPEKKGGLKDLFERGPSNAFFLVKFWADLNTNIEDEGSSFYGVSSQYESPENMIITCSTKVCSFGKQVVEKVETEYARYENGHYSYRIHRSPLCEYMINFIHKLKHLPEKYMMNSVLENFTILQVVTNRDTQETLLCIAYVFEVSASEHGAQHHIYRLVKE
Procedure: HEK293A cells were transfected with the indicated above. After 48 h, cells were lysed with lysis buffer (50 mM Tris-HCl, pH 7.3, 150 mM NaCl, 0.5 mM EDTA, 1% Triton X-100, PhosSTOP phosphatase inhibitor cocktail, cOmplete EDTA-free protease inhibitors cocktail). Flag-YAP or Myc-TEAD1 was immunoprecipitated with anti-FLAG M2 magnetic beads (Sigma Aldrich) or anti-c-Myc antibody (M4439, Sigma Aldrich), respectively, overnight with rotation at 4° C. TEAD1 was captured using Protein A/G magnetic resins (Life technologies). Protein-bound resins were washed three times with lysis buffer and processed with SDS-PAGE sample buffer. Blots were probed with anti-c-Myc (Sigma Aldrich), anti-HA (Sigma Aldrich), anti-FLAG M2 (F1804, Sigma Aldrich).
Co-immunoprecipitation assays of TEAD4 and YAP were performed. The ability of compound (4) (“CP-1”) to inhibit to inhibit the TEAD4-YAP interaction was tested at concentrations in the range from 0 to 10 μM.

HuH7 cells = assay: Cell proliferation assay, HuH7; type: cell-based, human
Procedure: Human cancer cell lines (HuH7, JHH7), transformed MCF10A-YAP and mouse Lats1/2 DKO cells were cultured in 5% FBS containing media. The cells were seeded into 96-well plate with 500 cells/well. Various concentrations of compounds (10 nM to 20 μM) or DMSO control were added into the wells. The cells were further incubated for 2-5 days. The cell viability is determined by using CellTiter Glo (Promega). The data were then normalized with DMSO control and plotted in Prism software Human melanoma cell A375 and dermal fibroblasts are control cells and are tested similarly.
(§1) Assays were performed to measure inhibition of cancer cell proliferation by compound (4). The ability of compound (4) (“CP-1”) to inhibit proliferation cell proliferation in the human hepatocellular carcinoma cell lines HuH7 and JHH7, and in the breast cancer cell line MDA-MB-453. The compound was also tested against the SK-HEP-1 (adenocarcinoma), BT-474 (breast tumor), OCUB-M (breast carcinoma), HCC1143 (ductal carcinoma), EVSA-T (ductal carcinoma) and BT-20 (breast carcinoma) cell lines.

[1] = system: YAP-independent HCC and breast cancer cell lines; assay: Cell proliferation assay, YAP-independent cell lines; type: cell-based; settings: compared with YAP dependent cell lines (FIG. 28 panels G-H)
Procedure: as §1

JHH7 cells = assay: Colony formation, JHH7; type: cell-based, human; settings: JHH7 (FIG. 28 panel B)

Chain of TEAD1-YAP interaction (P28347 167-426 limits assumed): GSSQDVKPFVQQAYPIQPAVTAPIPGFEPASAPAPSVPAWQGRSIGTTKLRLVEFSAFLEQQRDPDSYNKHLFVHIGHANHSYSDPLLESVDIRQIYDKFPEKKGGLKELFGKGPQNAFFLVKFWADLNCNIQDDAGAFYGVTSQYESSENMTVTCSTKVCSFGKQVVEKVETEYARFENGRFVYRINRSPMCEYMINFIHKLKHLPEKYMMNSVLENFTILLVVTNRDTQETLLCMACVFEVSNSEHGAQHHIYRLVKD

## O=C(CSc1nnc[nH]1)Nc1ccc(C23CC4CC(CC(C4)C2)C3)cc1 [Compound 4]
TEAD1-YAP interaction
  IC50: 83 nM
TEAD2; 1 μM alkyne palmitoyl-CoA, 1 h, 0.5-20 μM compound, streptavidin blot (FIG. 9)
  inhibition of TEAD2 YBD autopalmitoylation in vitro: dose-dependently inhibits
TEAD2; purified TEAD2, 1 μM alkyne-palmitoyl-CoA, 0 to 10 μM compound (FIG. 23)
  inhibition of TEAD2 palmitoylation in vitro: dose-dependently inhibited
TEAD1
  inhibition of TEAD1 palmitoylation in cells: dose-dependently inhibited
TEAD4-YAP interaction
  inhibition of the interaction of TEAD4 with YAP: dose-dependently inhibited
HuH7 cells; Homo sapiens, Huh-7, FIG. 28 panel C
  IC50: 1600 nM
HuH7 cells; HuH7 (FIG. 28 panel A)
  inhibition of cell proliferation, dose dependency: dose-dependently inhibits
HuH7 cells; HuH7, 500 cells/well, 10 μM (FIG. 19)
  inhibition of YAP-dependent cancer cell proliferation: inhibits
[1]
  inhibition of proliferation of YAP-independent cell lines: less effective
JHH7 cells
  inhibition of colony formation: inhibits
